In US10238713B2, “Cyclic tetrapeptides and therapeutic applications thereof” (LODZ UNIVERSITY OF TECHNOLOGY, priority 2010, dated 2019):
Read-outs that look alike come from different tables or passages of the source. Non-standard residues stand in square brackets, D forms with d. Residues, ends and D or L forms follow the SMILES beside them. *: point of attachment. d(β3hF) = N[C@@H](CC(=O)O)Cc1ccccc1; Tic = O=C(O)[C@@H]1Cc2ccccc2CN1; β3hF = N[C@H](CC(=O)O)Cc1ccccc1; tBu = CC(C)(C)*

Tests used:
[1] = system: PHA-induced proliferation of human peripheral blood mononuclear cells (PBMC); assay: Proliferative response of PBMC to PHA (MTT); assay type: cell-based; conditions: four-day incubation
[2] = system: mice, carrageenan-induced foot pad edema; assay: Carrageenan-induced foot-pad edema test; assay type: in vivo, mouse; conditions: 4 h after carrageenan; peptides 250 μg i.p., DEX 25 μg i.p., 30 min before; FIGS. 17A-17C
Procedure: (§1) In this and the air-pouch test, 1.5 mg peptide was dissolved in 300 μl of DMSO, then in 0.9% NaCl to achieve the desired dose (250 μg/0.2 ml or 100 μg/0.2 ml). Carrageenan (Sigma) was dissolved in 0.9% aqueous NaCl (overnight). 50 μl of 2% carrageenan solution was injected intradermally into hind foot pads. The peptides were given in a single 250 μg dose (0.2 ml) per mouse intraperitoneally (i.p.), 30 min before carrageenan administration. Dexamethasone (DEX) (Dexaven, Polfa, Poland), a reference drug, was given i.p. in dose 25 μg per mouse. Control mice were administered i.p. appropriately diluted solvent (DMSO in aqueous NaCl) instead of peptides. The foot pads of “background” (BG) mice were injected with 50 μl of 0.9% aqueous NaCl. Foot pad edema was measured with a spring caliper, 2 h, 3 h and 4 h after administration of carrageenan. The results are presented in FIGS. 17A, 17B and 17C as mean values of the antigen-specific increase of the foot pad thickness measured in 5 mice in each experimental group and expressed in mm ±SE (only results from measurements 4 h following administration of carrageenan are presented in figures). Statistics: FIG. 17A: Control vs: DEX P=0.0001; 4B8M P=0.0001; P25 NS (P=1.0000); P28 NS (P=1.0000); P31 NS (P=0.0528); P35 P=0.0008 (ANOVA of Kruskal-Wallis); FIG. 17B: Statistics: Control vs: P22 NS (P=1.0000); P26 NS (P=1.0000); P27 P=0.0050; P30 P=0.0004; P33-b NS (P=1.0000); SP00-b P=0.0001; P00S-b NS (P=1.0000) (ANOVA of Kruskal-Wallis); FIG. 17C: Statistics: Control vs: P21 P=0.0147; P23-2 P=0.0083; P24 P=0.0001; P29 NS (P=0.9999); P32 P=0.0001; P33 NS (P=0.6806); P34 NS (P=0.1920) (ANOVA).

[3] = system: mice, carrageenan air pouch; assay: Carrageenan air-pouch test (exudate cell number); assay type: in vivo, mouse; conditions: peptides 100 μg i.p. one hour before carrageenan, 24 h; FIGS. 18A-18B
Procedure: as §1
Air pouches were formed by subdermal injection into the dorsal region (in a halothane anesthesia) of 5 cm^3 of air (needle 23G x 11/4, 5 ml syringe). On day 3 the air pouches were given an additional 2 ml of air and an inflammatory process was elicited by an intra-pouch injection of 1% of carrageenan in 0.5 ml of 0.9% aqueous NaCl. The peptides were given i.p. at a dose of 100 μg one hour before carrageenan injection into the air pouch. The mice from the “background” (BG) group were given 0.9% aqueous NaCl i.p. and 0.9% aqueous NaCl into the air pouches. Control mice were given appropriately diluted DMSO i.p. and carrageenan into the air pouches. 24 h after carrageenan injection, the mice were sacrificed by cervical dislocation, the air pouches were supplemented with 1 ml of 0.9% aqueous NaCl and the exudates from the air pouches were aspirated using a syringe. The exudates were diluted with 0.9% aqueous NaCl and the cells were counted in a Bürker hemocytometer. Data are presented in FIGS. 18A and 18B as the mean values from 10 mice/group (cell number×10^6 per mouse) ±SE. Then the cells were centrifuged and 0.1 ml of the supernatant was saved for TNF-α determination (see Determination of TNF-α activity, above). The cell pellets were used to perform smears on microscopic glasses, which were stained with Giemsa and May-Grünwald reagents for evaluation of mast cell degranulation. Cell analysis was performed by a histologist using a light microscope and 1000× magnification. The content of intact and degranulated mast cells is given in percentage (mean values from 10 mice/group) ±SE. Statistics: FIG. 18A: BG vs Control P=0.0000; Control vs: DEX P=0.0034; 4B8M P=0.0005; P22 NS (P=0.7275); P26 P=0.0032; P27 NS (P=0.0659); P35 NS (P=1.0000) (ANOVA of Kruskal-Wallis); FIG. 18B: Control vs: P21 NS (P=0.322); P23-2 P=0.0020; P24 P=0.0001; P25 P=0.0418; P28 NS (P=0.3502); P29 NS (P=0.0582); P30 P=0.0006; P31 P=0.0078; P32 P=0.0340; P33 NS (P=0.9993); P34 NS (p=0.0566) (ANOVA).

human PBMC = assay: Toxicity test: PBMC survival in 24 h culture (MTT); conditions: ANOVA, FIGS. 8A-8F (4B8M repeated per figure)
Procedure: PBMC were isolated by centrifugation on Ficoll-uropoline gradient (density 1.077 g/ml) (Lymphoprep; PAA Laboratories), at 800×g for 20 min at 4° C. The interphase cells, consisting of lymphocytes (20%) and monocytes (80%) were then washed three times with Hanks' medium and re-suspended in the culture medium at density of 2×10^6 cells/ml.
Appropriate dilutions of DMSO in RPMI 1640 medium were used as controls. Cell survival was determined by the MTT colorimetric method (Hansen et al., J. Immunol. Methods, 1989, pp. 203-210). The data are presented as a mean OD value from quadriplicate wells ±standard error (SE). The cultures “Control (−)” contained only cells in the culture medium.
The assay was performed per Hansen et al., J. Immunol. […] Briefly, 25 μl of MTT (5 mg/ml) stock solution was added per well at the end of cell incubation and the plates were incubated for 3 h in a cell culture incubator. Then, 100 μl of the extraction buffer (20% SDS with 50% DMF, pH 4.7) was added. After additional overnight incubation, the optical density was measured at 550 nm (Dynatech 5000).

[4] = system: LPS-induced TNF-α production; assay type: cell-based; conditions: Table 2A
Procedure: Human whole blood was diluted 10-fold with RPMI-1640 medium and distributed to 24-well culture plates in 1 ml aliquots. LPS was added to the culture at a concentration of 1 μg/ml. The studied peptides were used at concentrations of 1, 10 and 100 μg/ml. After overnight incubation, the supernatants were harvested and frozen at −20° C. until cytokine determination. TNF-α activity was determined using a bioassay. Briefly, WEHI 164.13 cells (ATCC CRL 1751) were seeded at a concentration of 2×10^4 cells/well in quadriplicate. Increasing dilutions of the assayed supernatant were mixed with the target cells in the presence of actinomycin D (1 μg/ml). After 20 h of incubation, MTT was added into the wells, and the cultures were incubated for an additional 4 h. […] The detection limit of the assay was about 2.5 pg/ml. One unit of TNF-α activity was defined as an inverse of supernatant dilution where 50% cell death took place. The cultures labeled “Control (−)” contained no LPS. The cultures labeled “Control (LPS)” contained LPS and none of the studied compounds. Statistical analysis was not applied since the data derive from single cultures (wells).

[5] = compound 1 μg/ml, LPS 1 μg/ml, overnight
[6] = compound 100 μg/ml (DMSO only: 196)

| SMILES | PHA-induced PBMC proliferation, P vs DMSO at appropriate dilution ([1]; 100 μg/ml, FIGS. 9A-9F) | foot pad edema (increase of foot pad thickness), P vs Control [2] | air pouch exudate cell number, P vs Control [3] | PBMC survival, P vs DMSO at appropriate dilution (human PBMC; 10 μg/ml) | PBMC survival, P vs DMSO at appropriate dilution (human PBMC; 100 μg/ml) | PHA-induced PBMC proliferation, P vs DMSO at appropriate dilution ([1]; 1 μg/ml, FIGS. 9A-9B) | PHA-induced PBMC proliferation, P vs DMSO at appropriate dilution ([1]; 10 μg/ml, FIGS. 9A-9F) | % inhibition vs. DMSO ([4]; compound 1 μg/ml) | TNF-α [4, 5] | % inhibition vs. DMSO ([4]; compound 10 μg/ml) | TNF-α ([4]; compound 10 μg/ml) | % inhibition vs. DMSO ([4]; compound 100 μg/ml) | TNF-α [4, 6] |
| --- | --- | --- | --- | --- | --- | --- | --- | --- | --- | --- | --- | --- | --- |
| O=C1N[C@@H](Cc2ccccc2)CC(=O)N2Cc3ccccc3C[C@H]2C(=O)N2CCC[C@H]2C(=O)N2CCC[C@@H]12 [I-AA] (cyclo(PP[β3hF][Tic])) | 1.0000 | 1.0000 | 0.3502 | 0.9997 | 0.9978 | – | – | – | – | – | – | – | – |
| O=C1C[C@H](Cc2ccccc2)NC(=O)[C@@H]2CCCN2C(=O)[C@@H]2CCCN2C(=O)[C@@H](Cc2ccccc2)N1 [I-D] (cyclo(PP[β3hF][dF])) | 1.0000 | – | – | – | – | 1.0000 | 0.9999 | 14.1% | 7016 pg/mL | 28.1% | 5757 pg/mL | 28.1% | 141 pg/mL |
| O=C1C[C@H](Cc2ccccc2)NC(=O)[C@@H]2CCCN2C(=O)[C@H]2CCCN2C(=O)[C@H](Cc2ccccc2)N1 [I-F] (cyclo([dP]P[β3hF]F)) | 0.0001 | – | – | – | – | 1.0000 | 0.9930 | 25.9% | 6052 pg/mL | 34.8% | 5222 pg/mL | 61.2% | 76 pg/mL |
| CC(C)(C)OC[C@@H]1NC(=O)[C@H](Cc2ccccc2)NC(=O)C[C@H](Cc2ccccc2)NC(=O)[C@@H]2CCCN2C1=O [I-AL] (cyclo(FS(tBu)P[β3hF])) | 0.9976 | 0.0001 | – | 1.0000 | 0.0466 | – | 0.2258 | – | – | – | – | – | – |
| O=C1C[C@H](Cc2ccccc2)NC(=O)[C@H]2CCCN2C(=O)[C@H]2CCCN2C(=O)[C@@H](Cc2ccccc2)N1 [I-E] (cyclo([dF][dP][dP][β3hF])) | 0.9982 | – | – | – | – | 1.0000 | 1.0000 | 19.0% | 6614 pg/mL | 20.7% | 6346 pg/mL | 10.2% | 176 pg/mL |
| O=C1C[C@@H](Cc2ccccc2)NC(=O)[C@H]2CCCN2C(=O)[C@H]2CCCN2C(=O)[C@@H](Cc2ccccc2)N1 [I-J] (cyclo([d(β3hF)][dF][dP][dP])) | 0.1257 | – | – | – | – | 1.0000 | 1.0000 | 1.6% | 8033 pg/mL | 4.4% | 7658 pg/mL | 0.0% | 203 pg/mL |
